Experimental findings from patent publication US20160219881A1, “HERBICIDALLY ACTIVE 2-HALOGEN-4-ALKYNYL-PHENYL-PYRAZOLIDINE-DIONE OR PYRROLIDINE-DIONE DERIVATIVES” (SYNGENTA LIMITED, priority 2013, published 2016) are described below.

Common to all, as to format: in vivo
Test [1] has as its system Echinochloa crus-galli (ECHCG). Description: Test 1A glasshouse assay, pre-emergence herbicidal activity. The settings on record: 312 h, 13 days after application, read-out: Pre-Emergence Herbicidal Activity (% Phytotoxicity) ECHCG. As for the experimental part: (§1) Seeds of a variety of test species are sown in standard soil (usually sandy soil) in pots. After cultivation for one day (pre-emergence) or after 8 days cultivation (post-emergence) under controlled conditions in a glasshouse (at 24/16° C., day/night; 14 hours light; 65% humidity), the plants are sprayed with an aqueous spray solution derived from the formulation of the technical active ingredient (compound) in acetone/water (50:50) solution containing 0.5% Tween 20 (polyoxyethylene sorbitan monolaurate, CAS RN 9005-64-5). The test plants are then grown under controlled conditions in a glasshouse (at 24/16° C., day/night; 14 hours light; 65% humidity) and watered twice daily. 13 days after application of the test compounds, for pre- and post-emergence, the test is evaluated visually for percentage phytotoxicity to each plant (where 100%=total damage to plant; 0%=no damage to plant).
(§2) Alopecurus myosuroides (ALOMY), Setaria faberi (SETFA), Echinochloa crus-galli (ECHCG), Amaranthus retroflexus (AMARE), and Abutilon theophasti Medik. (ABUTH, common English name “velvetleaf”). Of these, Alopecurus myosuroides (ALOMY), Setaria faberi (SETFA), and Echinochloa crus-galli (ECHCG) are grassy monocotyledonous weeds. […]

In test [2] the test system is Echinochloa crus-galli (ECHCG). Description: Test 1A glasshouse assay, post-emergence herbicidal activity. The settings on record: 312 h, 13 days after application, read-out: Post-Emergence Herbicidal Activity (% Phytotoxicity) ECHCG. As for the experimental part:
as §1, §2

The test system of test [3] is Alopecurus myosuroides (ALOMY). Described as above. To be noted: 312 h, 13 days after application, read-out: Post-Emergence Herbicidal Activity (% Phytotoxicity) ALOMY. As for the experimental part: as §1, §2
Test [4] concerns Beta vulgaris (BEAVA, sugar beet). Description: Biological Example 3 (Test 2 glasshouse assay), post-emergence herbicidal activity. As for the experimental part:
(§3) Seeds of a variety of monocotyledonous and dicotyledonous test plants are sown in standard soil in pots. The plants are cultivated for one day (for pre-emergence) or for about 12 days (range=10-13 days) (for post-emergence) under controlled conditions in a glasshouse (warm climate species at 24/18° C., cool climate species at 20/16° C., both at day/night; 16 hours light; 65% humidity).
(§4) An “instant formulation”, known as the “IF50”, containing 50 g/litre (i.e. 5% w/v) of the “technical” (i.e. unformulated) active ingredient is prepared by dissolving the active ingredient in a mixture of organic solvents and emulsifier, details of which are provided in the Table below. This IF50 is then mixed with a small, variable amount of acetone to aid dissolution, before addition of a 0.2% v/v aqueous solution of the adjuvant X-77 (which is a mixture of alkyl aryl polyoxyethylene glycols and free fatty acids in isopropanol, CAS Registry number 11097-66-8), as the aqueous diluent, to form an aqueous spray solution which contains a predetermined concentration of the active ingredient (which varies depending on the application rate of the active ingredient to the plants) and 0.2% v/v of the adjuvant X-77. This aqueous spray solution is then sprayed onto the plants, after one day's cultivation (for pre-emergence) or after about 12 days' cultivation (for post-emergence).
(§5) The test plants are then grown on, in a glasshouse (greenhouse) under controlled conditions (at either 24/18° C. or 20/16° C. (day/night) as mentioned above; 16 hours light; 65% humidity) and are watered twice daily. Either 15 days after application of the test compound (15 DAA) (for post-emergence), or 20 days after application of the test compound (20 DAA) (for pre-emergence), the test plants are evaluated visually, and an assessed percentage phytotoxicity score is given for each compound application on each plant species (where 100%=total damage to plant; 0%=no damage to plant).
(§6) Cool climate crop plants: Triticum aestivum (TRZAW, winter wheat), Brassica napus (BRSNN, rape, also called oilseed rape or rapeseed), Beta vulgaris (BEAVA, sugar beet). Warm climate crop plants: Glycine max (GLXMA, soybean). Cool climate (“cool season”) grassy monocotyledonous weeds: Alopecurus myosuroides (ALOMY), Avena fatua (AVEFA), Lolium perenne (LOLPE). Warm climate (“warm season”) grassy monocotyledonous weeds: Setaria faberi (SETFA), SORVU (Sorghum bicolor (L.) Moench ssp. Bicolor, or Sorghum vulgare Pers.), Digitaria sanguinalis (DIGSA), Echinochloa crus-galli (ECHCG), and Brachiaria plantaginea (BRAPL).

Test [5] deals with Brassica napus (BRSNN, rape). The description is as above. As for the experimental part: as §3, §4, §5, §6
In test [6] the test system is Triticum aestivum (TRZAW, winter wheat). The description is as above. As for the experimental part:
as §3, §4, §5, §6

The subject of test [7] is Echinochloa crus-galli (ECHCG). The test is described as above. As for the experimental part: as §3, §4, §5, §6
Test [8] has as its system Glycine max (GLXMA, soybean). The test is described as above. As for the experimental part:
as §3, §4, §5, §6

In a further test the test system is Lolium perenne (LOLPE). Described as above. As for the experimental part:
as §3, §4, §5, §6

Test [9] deals with Alopecurus myosuroides (ALOMY). The description is as above. As for the experimental part:
as §3, §4, §5, §6

For test [10], the system named is Brachiaria plantaginea (BRAPL). The test is described as above. As for the experimental part: as §3, §4, §5, §6
Test [11] has as its system Digitaria sanguinalis (DIGSA). Described as above. As for the experimental part: as §3, §4, §5, §6
Test [12] concerns SORVU (Sorghum bicolor (L.) Moench ssp. Bicolor, or Sorghum vulgare Pers.). The test is described as above. As for the experimental part:
as §3, §4, §5, §6

The test system of the next test is Setaria faberi (SETFA). The test is described as above. As for the experimental part: as §3, §4, §5, §6

As to `CC#Cc1cc(C)c(C2C(=O)N(C)N(C)C2=O)c(C)c1` [Compound A1], the inhibition at 250 g/ha was found to be 30% in test [1], 40% in test [2] and 0% in test [3]. Besides, the “Post-Emergence Herbicidal Activity (Percentage Phytotoxicity) BEAVA” value is 0% in test [4] (30 g/ha) and 10% in test [4] (125 g/ha). In addition, the “Post-Emergence Herbicidal Activity (Percentage Phytotoxicity) BRSNN” value in test [5] (30 g/ha) and in test [5] (125 g/ha) was 70% throughout. The results for the “Post-Emergence Herbicidal Activity (Percentage Phytotoxicity) TRZAW” value in test [6] (30 g/ha) and in test [6] (125 g/ha) were 30% and 80%, respectively. For the same compound, the “Post-Emergence Herbicidal Activity (Percentage Phytotoxicity) ECHCG” value in test [7] (30 g/ha (rate by row order)) was found to be 70%; in [7] (125 g/ha (rate by row order)), 90%. Further, the “Post-Emergence Herbicidal Activity (Percentage Phytotoxicity) GLXMA” value amounted to 30% in [8] (30 g/ha) and 70% in test [8] (125 g/ha). The “Post-Emergence Herbicidal Activity (Percentage Phytotoxicity) LOLPE” value in the test with Lolium perenne (LOLPE) (30 g/ha) is recorded as 30%; with Lolium perenne (LOLPE) (125 g/ha), 80%. In addition, the “Post-Emergence Herbicidal Activity (Percentage Phytotoxicity) ALOMY” value in test [9] (30 g/ha) is 10%; in test [9] (125 g/ha), 70%. Moreover, the “Post-Emergence Herbicidal Activity (Percentage Phytotoxicity) BRAPL” value in test [10] (30 g/ha (rate by row order)) is 70%; in test [10] (125 g/ha (rate by row order)) it was 100%. Besides, the “Post-Emergence Herbicidal Activity (Percentage Phytotoxicity) DIGSA” value in test [11] (30 g/ha (rate by row order)) stood at 80%; in test [11] (125 g/ha (rate by row order)), 90%. For the same compound, the “Post-Emergence Herbicidal Activity (Percentage Phytotoxicity) SORVU” value came to 70% in [12] (30 g/ha (rate by row order)) and 80% in test [12] (125 g/ha (rate by row order)).

For the compound `CC#Cc1cc(C)c(C2C(=O)N3CCCCCN3C2=O)c(C)c1` [Compound A23, 2-(2,6-dimethyl-4-prop-1-ynyl-phenyl)-6,7,8,9-tetrahydro-5H-pyrazolo[1,2-a]diazepine-1,3-dione], the inhibition at 250 g/ha worked out at 90% in test [1], 80% in test [2] and 80% in test [3]. Besides, the “Post-Emergence Herbicidal Activity (Percentage Phytotoxicity) BEAVA” value is 10% in [4] (30 g/ha) and 40% in test [4] (125 g/ha). The “Post-Emergence Herbicidal Activity (Percentage Phytotoxicity) BRSNN” value is recorded as 30% in [5] (30 g/ha) and 50% in test [5] (125 g/ha). Besides, the figures for the “Post-Emergence Herbicidal Activity (Percentage Phytotoxicity) SETFA” value in the test on Setaria faberi (SETFA) (30 g/ha (rate by row order)) and in the test with Setaria faberi (SETFA) (125 g/ha (rate by row order)) were 0% and 70%, respectively. The “Post-Emergence Herbicidal Activity (Percentage Phytotoxicity) TRZAW” value turned out to be 0% in test [6] (30 g/ha) and 50% in [6] (125 g/ha). The “Post-Emergence Herbicidal Activity (Percentage Phytotoxicity) ECHCG” value in [7] (30 g/ha (rate by row order)) stood at 0%; in test [7] (125 g/ha (rate by row order)) it was 20%. Also, the “Post-Emergence Herbicidal Activity (Percentage Phytotoxicity) GLXMA” value in test [8] (30 g/ha) is 0%; in [8] (125 g/ha), 70%. Besides, the “Post-Emergence Herbicidal Activity (Percentage Phytotoxicity) LOLPE” value is 0% in the test on Lolium perenne (LOLPE) (30 g/ha) and 40% in the test on Lolium perenne (LOLPE) (125 g/ha). Besides, the “Post-Emergence Herbicidal Activity (Percentage Phytotoxicity) ALOMY” value in [9] (30 g/ha) amounted to 0%; in test [9] (125 g/ha), 50%. Moreover, the results for the “Post-Emergence Herbicidal Activity (Percentage Phytotoxicity) BRAPL” value in test [10] (30 g/ha (rate by row order)) and in [10] (125 g/ha (rate by row order)) were 0% and 10%, respectively. The “Post-Emergence Herbicidal Activity (Percentage Phytotoxicity) DIGSA” value in [11] (30 g/ha (rate by row order)) is on record as 30%; in test [11] (125 g/ha (rate by row order)), 70%. The “Post-Emergence Herbicidal Activity (Percentage Phytotoxicity) SORVU” value in [12] (30 g/ha (rate by row order)) is listed as 50%; in test [12] (125 g/ha (rate by row order)), 70%.

For `CC#Cc1cc(C)c(C2C(=O)C(Cc3ccccn3)N(C)C2=O)c(C)c1` (centres unmarked) [Compound A50, 3-(2,6-dimethyl-4-prop-1-ynyl-phenyl)-1-methyl-5-(2-pyridylmethyl)pyrrolidine-2,4-dione], the inhibition at 62.5 g/ha in [1] (62.5 g/ha) amounted to 70%; in test [2] (62.5 g/ha) it was 100%; in test [3] (62.5 g/ha) it was 90%. Besides, the figures for the inhibition at 250 g/ha in test [1], in test [2] and in test [3] were 90%, 100% and 100%, respectively. Further, the inhibition at 15.625 g/ha in test [2] (15.625 g/ha) is 80%; in [3] (15.625 g/ha) it was 30%.
